Test results published in patent US20250179059A1 (The Regents of the University of California, priority 2021, published 2025).

Legend:
[1] = molecular target: T1, human BRD4 bromodomain II (Homo sapiens, UniProt O60885); assay: Bromodomain binding assay (AlphaScreen), BRD4 BDII; details: AlphaScreen assay, Table C2; read-out: BRD4 BDII IC50
T1 construct: human BRD4 bromodomain II [based on Genbank NM_058243, residues 349-460]; host or cells: E. coli
How it was run: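 Tagged BRD4 BDI or BDII constructs, expressed in E. coli, competed against a K5/K8/K12/K16-acetylated biotin-H4 peptide. Proximity signal between bead pairs after room-temperature incubations gave concentration-response curves, from which IC50 was derived.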

[2] = tested on: human SKM-1 acute myeloid leukemia cells; assay: SKM-1 antiproliferation cell-based assay (ATPlite); details: Homo sapiens, SKM-1, 96 h, SKM-1 antiproliferation assay, 4 days, Table C2
How it was run: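 Log-phase cells in RPMI 1640/15% FBS were seeded at 34722 cells/mL and exposed for 4 days to nine-concentration DMSO serial dilutions in triplicate. Viability was read as ATP luminescence (ATPlite 1step), and IC50 values came from variable-slope non-linear regression.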

Compound | IC50 [1] | GI50 [2]
Cn1ccn(-c2ccc(-c3cc(F)cc(-c4ccnc(N5CCNc6ccccc65)c4)c3O)cc2Cl)c1=O [Example 532, 1-(3-chloro-3′-(2-(3,4-dihydroquinoxalin-1(2H)-yl)pyridin-4-yl)-5′-fluoro-2′-hydroxy-[1,1′-biphenyl]-4-yl)-3-methyl-1H-imidazol-2(3H)-one] | > 100 nM | ≥ 3000 nM
Cn1ccn(-c2ccc(-c3cc(F)cc(-c4cc(N5CC[C@H](N)C5)c5nc[nH]c5c4)c3O)cc2Cl)c1=O [Example 533, (S)-1-(3′-(4-(3-aminopyrrolidin-1-yl)-1H-benzo[d]imidazol-6-yl)-3-chloro-5′-fluoro-2′-hydroxy-[1,1′-biphenyl]-4-yl)-3-methyl-1H-imidazol-2(3H)-one] | 1 to 10 nM | 0.3 to 30 nM
Cn1ccn(-c2ccc(-c3cc(F)cc(-c4cc(N5CCNCC5)c5nn[nH]c5c4)c3O)cc2Cl)c1=O [Example 535, 1-(3-chloro-5′-fluoro-2′-hydroxy-3′-(4-(piperazin-1-yl)-1H-benzo[d][1,2,3]triazol-6-yl)-[1,1′-biphenyl]-4-yl)-3-methyl-1H-imidazol-2(3H)-one] | 1 to 10 nM | 0.3 to 30 nM
C[C@@H]1CN(c2cc(-c3cc(F)cc(-c4ccc(-n5ccn(C)c5=O)c(Cl)c4)c3O)cc3[nH]nnc23)CCN1 [Example 536, (R)-1-(3-chloro-5′-fluoro-2′-hydroxy-3′-(4-(3-methylpiperazin-1-yl)-1H-benzo[d][1,2,3]triazol-6-yl)-[1,1′-biphenyl]-4-yl)-3-methyl-1H-imidazol-2(3H)-one] | 1 to 10 nM | 0.3 to 30 nM
Cn1ccn(-c2ccc(-c3cc(F)cc(-c4cc(N5CC[C@H](N)C5)c5nn[nH]c5c4)c3O)cc2Cl)c1=O [Example 537, (S)-1-(3′-(4-(3-aminopyrrolidin-1-yl)-1H-benzo[d][1,2,3]triazol-6-yl)-3-chloro-5′-fluoro-2′-hydroxy-[1,1′-biphenyl]-4-yl)-3-methyl-1H-imidazol-2(3H)-one] | 1 to 10 nM | 30 to 300 nM
Cn1ccn(-c2ccc(-c3cc(F)cc(-c4ccnc(N5CC[C@H](N)C5)c4)c3N)cc2Cl)c1=O [Example 541, (S)-1-(2′-amino-3′-(2-(3-aminopyrrolidin-1-yl)pyridin-4-yl)-3-chloro-5′-fluoro-[1,1′-biphenyl]-4-yl)-3-methyl-1H-imidazol-2(3H)-one] | 1 to 10 nM | 30 to 300 nM
Cn1ccn(-c2ccc(-c3cc(F)cc(-c4cc(N5CCNCC5)c5nccnc5c4)c3O)cc2Cl)c1=O [Example 547, 1-(3-chloro-5′-fluoro-2′-hydroxy-3′-(8-(piperazin-1-yl)quinoxalin-6-yl)-[1,1′-biphenyl]-4-yl)-^3-methyl-1H-imidazol-2(3H)-one] | 0.01 to 1 nM | 0.3 to 30 nM
Cn1ccn(-c2ccc(-c3cc(F)cc(-c4cc(N5CC[C@H](N)C5)c5nccnc5c4)c3O)cc2Cl)c1=O [Example 548, (S)-1-(3′-(8-(3-aminopyrrolidin-1-yl)quinoxalin-6-yl)-3-chloro-5′-fluoro-2′-hydroxy-[1,1′-biphenyl]-4-yl)-3-methyl-1H-imidazol-2(3H)-one] | 1 to 10 nM | 0.3 to 30 nM
C[C@@H]1CN(c2cc(-c3cc(F)cc(-c4ccc(-n5ccn(C)c5=O)c(Cl)c4)c3O)cc3nccnc23)CCN1 [Example 549, (R)-1-(3-chloro-5′-fluoro-2′-hydroxy-3′-(8-(3-methylpiperazin-1-yl)quinoxalin-6-yl)-[1,1′-biphenyl]-4-yl)-3-methyl-1H-imidazol-2(3H)-one] | 1 to 10 nM | 0.3 to 30 nM
Cn1ccn(-c2ccc(-c3cc(F)cc(-c4cncc(N5CCNC6(CC6)C5)c4)c3O)cc2Cl)c1=O [Example 550, 1-(3′-(5-(4,7-diazaspiro[2.5]octan-7-yl)pyridin-3-yl)-3-chloro-5′-fluoro-2′-hydroxy-[1,1′-biphenyl]-4-yl)-3-methyl-1H-imidazol-2(3H)-one] | 0.01 to 1 nM | 0.3 to 30 nM

Next, values leading:

IC50 [1] | GI50 [2] | Compound
1 to 10 nM | 0.3 to 30 nM | C[C@@H]1CN(c2cc(-c3cc(F)cc(-c4ccc(-n5ccn(C)c5=O)c(F)c4)c3O)ccn2)CCN1 [Example 534, (R)-1-(3,5′-difluoro-2′-hydroxy-3′-(2-(3-methylpiperazin-1-yl)pyridin-4-yl)-[1,1′-biphenyl]-4-yl)-3-methyl-1H-imidazol-2(3H)-one]
1 to 10 nM | 30 to 300 nM | C[C@@H]1CN(c2cc(-c3cc(Cl)cc(-c4ccc(-n5ccn(C)c5=O)c(F)c4)c3O)ccn2)CCN1 [Example 538, (R)-1-(5′-chloro-3-fluoro-2′-hydroxy-3′-(2-(3-methylpiperazin-1-yl)pyridin-4-yl)-[1,1′-biphenyl]-4-yl)-3-methyl-1H-imidazol-2(3H)-one]
1 to 10 nM | 0.3 to 30 nM | Cn1ccn(-c2ccc(-c3cc(Cl)cc(-c4ccnc(N5CC[C@H](N)C5)c4)c3O)cc2Cl)c1=O [Example 539, (S)-1-(3′-(2-(3-aminopyrrolidin-1-yl)pyridin-4-yl)-3,5′-dichloro-2′-hydroxy-[1,1′-biphenyl]-4-yl)-3-methyl-1H-imidazol-2(3H)-one]
1 to 10 nM | 0.3 to 30 nM | C[C@@H]1CN(c2cc(-c3cc(Cl)cc(-c4ccc(-n5ccn(C)c5=O)c(Cl)c4)c3O)ccn2)CCN1 [Example 540, (R)-1-(3,5′-dichloro-2′-hydroxy-3′-(2-(3-methylpiperazin-1-yl)pyridin-4-yl)-[1,1′-biphenyl]-4-yl)-3-methyl-1H-imidazol-2(3H)-one]
1 to 10 nM | 30 to 300 nM | C[C@@H]1CN(c2cc(-c3cc(F)cc(-c4ccc(-n5ccn(C)c5=O)c(Cl)c4)c3N)ccn2)CCN1 [Example 542, (R)-1-(2′-amino-3-chloro-5′-fluoro-3′-(2-(3-methylpiperazin-1-yl)pyridin-4-yl)-[1,1′-biphenyl]-4-yl)-3-methyl-1H-imidazol-2(3H)-one]
0.01 to 1 nM | 0.3 to 30 nM | C[C@@H]1CN(c2cc(-c3cc(F)cc(-c4ccc(-n5ccn(C)c5=O)c(Cl)c4)c3O)cc3[nH]ncc23)CCN1 [Example 543, (R)-1-(3-chloro-5′-fluoro-2′-hydroxy-3′-(4-(3-methylpiperazin-1-yl)-1H-indazol-6-yl)-[1,1′-biphenyl]-4-yl)-3-methyl-1H-imidazol-2(3H)-one]
0.01 to 1 nM | 0.3 to 30 nM | CC(=O)Nc1cc(-c2cc(F)cc(-c3ccc(-n4ccn(C)c4=O)c(Cl)c3)c2O)cc(N2CCN[C@H](C)C2)n1 [Example 544]
0.01 to 1 nM | 0.3 to 30 nM | Cc1cc(-c2cncc(N3CCN[C@H](C)C3)c2)c(O)c(-c2ccc(-n3ccn(C)c3=O)c(F)c2)c1 [Example 545, (R)-1-(3-fluoro-2′-hydroxy-5′-methyl-3′-(5-(3-methylpiperazin-1-yl)pyridin-3-yl)-[1,1′-biphenyl]-4-yl)-3-methyl-1H-imidazol-2(3H)-one]
0.01 to 1 nM | 0.3 to 30 nM | Cc1cc(-c2ccnc(N3CCN[C@H](C)C3)c2)c(O)c(-c2ccc(-n3ccn(C)c3=O)c(F)c2)c1 [Example 546, (R)-1-(3-fluoro-2′-hydroxy-5′-methyl-3′-(2-(3-methylpiperazin-1-yl)pyridin-4-yl)-[1,1′-biphenyl]-4-yl)-3-methyl-1H-imidazol-2(3H)-one]
